According to PMC3848914, “Histone deacetylase (HDAC) inhibitory and antiproliferative activities of phenolic-rich extracts derived from the rhizome of Hydnophytum formicarum Jack.: sinapinic acid acts as HDAC inhibitor” (BMC Complementary and Alternative Medicine, 2013):
Like-named read-outs stand apart in the source and are kept apart here.

Legend:
HeLa cells [1] = experiment: Apoptosis analysis (Annexin V/PI flow cytometry) in HeLa cells; format: cell-based, human; conditions: 6 h-treatment
Protocol: Apoptosis analysis was performed by using a Vybrant Apoptosis Assay Kit #2 (Molecular Probes, Invitrogen Corporation, Carlsbad, CA, U.S.A.) according to the manufacturer’s instructions. Briefly, cells were seeded at 1.2 × 10^6 cells/4 ml in a 4.5-cm dish, incubated for 24 hours, and treated with different concentrations of the extracts or sinapinic acid for 6 hours. Cells were harvested by trypsinization, washed with cold PBS, and resuspended in the Annexin-binding buffer. Cell density was determined and diluted in the annexin-binding buffer to 10^5 cells per assay. Cells were incubated with Alexa Fluor 488 Annexin V and Propidium iodide (PI) at room temperature for 15 minutes. Following the incubation, cells were analyzed by flow cytometry using a Beckman Coulter Cytomics FC500 MPL flow cytometry (Beckman Coulter, Miami, FL, U.S.A.). The flow cytometry results were confirmed by viewing the cells under a fluorescence microscope.

Vero cells = experiment: Antiproliferative activity assay (WST-8), Vero cells; format: cell-based; conditions: compounds
Protocol: (§1) Cells were seeded in a 96-well plate at cell density of 10^4 cells/well and incubated for 24 hours. Sample groups were treated with different concentrations of H. formicarum Jack. rhizome extracts (0.5-3.0 mg/mL), sinapinic acid (0.5-3.0 mM), or sodium butyrate (0.5-3.0 mM) for 24, 48 and 72 hours. Vehicle control groups were added with DMSO (final concentration of 0.05%) or double distilled water. Cell proliferation assays were performed using a WST-8 Cell Proliferation Assay Kit (BioVision, Mountain View, CA, U.S.A.) according to the manufacturer’s instructions. Absorbance (A) was measured at 415 nm using a microtiter plate reader (Bio-Rad Laboratories, Hercules, CA, U.S.A.). The absorbance at 655 nm was used as a reference wavelength. Cell proliferation or cell growth was determined as a percentage of the vehicle control by an equation of;
(§2) %CellProliferation=controlA‒sampleA/controlA×100.

HCT116 cells = experiment: Antiproliferative activity assay (WST-8), HCT116 cells; format: cell-based, human; conditions: compounds
Protocol: as §1, §2

[2] = test system: histone H4 acetylation in HeLa cells; experiment: HDAC inhibition in HeLa cells: histone acetylation by AUT gel electrophoresis; format: cell-based, human; conditions: 6 h-treatment
Protocol: Cells grown in a 4.5-cm dish were treated with either solvent control or the sample for 6 hours, and the histone proteins were then isolated according to the Abcam’s protocol (Abcam Inc., Cambridge, MA, U.S.A.) with some modifications. In brief, cells were harvested by trypsinization, washed with PBS, and then resuspended in Triton Extraction Buffer (TEB; PBS containing 0.5% (v/v) Triton X-100, 2 mM phenylmethylsulfonyl fluoride, 0.02% (w/v) NaN3) at a cell density of 10^5 cells/ml. The cells were incubated on ice and agitated periodically for 10 minutes. The suspension was centrifuged at 7,500 rpm for 10 minutes at 4°C to spin down the nuclei and the supernatant was discarded. The nuclei pellet was resuspended in 0.2 M HCl at a density of 10^6 nuclei/ml and incubated overnight at 4°C. […] Protein concentration was measured by using a Bio-Rad protein assay kit (Bio-Rad Laboratories, Hercules, CA, U.S.A.) based on the Bradford method.
Inhibition on acetylation of cellular histones was analyzed by gel electrophoresis using acid urea/Triton-X-100 (AUT) gels. […]
HDAC inhibition by ethanolic crude extract, phenolic-rich extract and sinapinic acid in HeLa cells was analyzed by AUT gel electrophoresis, whereby each cellular core histone (H2A, H2B, H3, and H4) with different extent of acetylation can be separated. […]

HeLa cells [3] = experiment: Antiproliferative activity assay (WST-8), HeLa cells; format: cell-based, human; conditions: compounds
Protocol: as §1, §2

Jurkat cells = experiment: Antiproliferative activity assay (WST-8), Jurkat cells; format: cell-based, human; conditions: compounds
Protocol: as §1, §2

MCF-7 cells = experiment: Antiproliferative activity assay (WST-8), MCF-7 cells; format: cell-based, human; conditions: compounds
Protocol: as §1, §2

[4] = target: HDAC enzymes (HeLa nuclear extract); experiment: In vitro HDAC inhibition activity assay (Fluor-de-Lys kit); format: biochemical, human
Protocol: HDAC inhibitory activity of the H. formicarum Jack. rhizome extracts, sinapinic acid (Sigma) and sodium butyrate (Sigma) was determined by using the Fluor-de-Lys HDAC activity assay kit (Biomol, Enzo Life Sciences International, Inc., Plymount Meeting, PA, U.S.A.). The assay was performed according to the manufacturer’s instructions. Fluorescence was measured using a spectra Max Gemini XPS microplate spectrofluorometer (Molecular Devices, Sunnyvale, CA, U.S.A.) with excitation at 360 nm and emission at 460 nm. Inhibition of HDAC activity was monitored by a decrease in fluorescence signal.
The effect of various polarity extracts including fractionated solvent extracts from hexane soluble fraction, ethyl acetate soluble fraction, methanol soluble fraction and also ethanolic crude extract on in vitro HDAC activity was examined by using HeLa nuclear extract as a source of the HDAC enzymes.

HT29 cells = experiment: Antiproliferative activity assay (WST-8), HT29 cells; format: cell-based, human; conditions: compounds
Protocol: as §1, §2

[5] = 72 h, read-out: IC50 values, HeLa cells 72 h

CC[C@@]1(O)C(=O)OCc2c1cc1n(c2=O)Cc2cc3ccccc3nc2-1 [Camptothecin]
Number of Late Apoptotic cells (%) (HeLa cells [1]; 0.1 mg/mL): 3.55 ± 1.06%

COc1cc(/C=C/C(=O)O)cc(OC)c1O [Sinapinic acid, sinapinic acid]
IC50 (Vero cells; Chlorocebus sabaeus, Vero, 24 h, read-out: IC50 values, Vero cells 24 h): > 3000 µM
IC50 (Vero cells; Chlorocebus sabaeus, Vero, 48 h, read-out: IC50 values, Vero cells 48 h): > 3000 µM
IC50 (Vero cells; Chlorocebus sabaeus, Vero, 72 h, read-out: IC50 values, Vero cells 72 h): > 3000 µM
IC50 (HCT116 cells; Homo sapiens, HCT-116, 24 h, read-out: IC50 values, HCT116 cells 24 h): > 3000 µM
IC50 (HCT116 cells; Homo sapiens, HCT-116, 48 h, read-out: IC50 values, HCT116 cells 48 h): 2200 ± 150 µM
IC50 (HCT116 cells; Homo sapiens, HCT-116, 72 h, read-out: IC50 values, HCT116 cells 72 h): 2100 ± 60 µM
Histone H4 acetylation in HeLa cells (in words) [2]: clearly increased di- and tri-acetylated H4 molecules
IC50 (HeLa cells [3]; Homo sapiens, HeLa, 24 h, 24 h, read-out: IC50 values, HeLa cells 24 h): 2350 ± 30 µM
IC50 (HeLa cells [3]; Homo sapiens, HeLa, 48 h, 48 h, read-out: IC50 values, HeLa cells 48 h): 2040 ± 60 µM
IC50 (HeLa cells [3]; Homo sapiens, HeLa, 72 h, 72 h, read-out: IC50 values, HeLa cells 72 h): 910 ± 20 µM
IC50 (HeLa cells [3]; [5]): 900 ± 20 µM
IC50 (Jurkat cells; Homo sapiens, Jurkat, 24 h, read-out: IC50 values, Jurkat cells 24 h): > 3000 µM
IC50 (Jurkat cells; Homo sapiens, Jurkat, 48 h, read-out: IC50 values, Jurkat cells 48 h): > 3000 µM
IC50 (Jurkat cells; Homo sapiens, Jurkat, 72 h, read-out: IC50 values, Jurkat cells 72 h): 2800 ± 120 µM
IC50 (MCF-7 cells; Homo sapiens, MCF7, 24 h, read-out: IC50 values, MCF-7 cells 24 h): > 3000 µM
IC50 (MCF-7 cells; Homo sapiens, MCF7, 48 h, read-out: IC50 values, MCF-7 cells 48 h): > 3000 µM
IC50 (MCF-7 cells; Homo sapiens, MCF7, 72 h, read-out: IC50 values, MCF-7 cells 72 h): > 3000 µM
Number of Early Apoptotic cells (%) (HeLa cells [1]; 4.5 mM): 4.40 ± 1.27%
Number of Late Apoptotic cells (%) (HeLa cells [1]; 4.5 mM): 1.75 ± 0.78%
Number of Early Apoptotic cells (%) (HeLa cells [1]; 9.0 mM): 8.40 ± 1.55%
Number of Late Apoptotic cells (%) (HeLa cells [1]; 9.0 mM): 3.25 ± 1.06%
Number of Early Apoptotic cells (%) (HeLa cells [1]; 9.0 mM, listed as sinapinic acid): 8.4%
IC50 [4]: 2270 ± 130 µM
IC50 (HT29 cells; Homo sapiens, HT-29, 24 h, read-out: IC50 values, HT29 cells 24 h): 2970 ± 50 µM
IC50 (HT29 cells; Homo sapiens, HT-29, 48 h, read-out: IC50 values, HT29 cells 48 h): 2200 ± 30 µM
IC50 (HT29 cells; Homo sapiens, HT-29, 72 h, read-out: IC50 values, HT29 cells 72 h): 1600 ± 20 µM

CCCC(=O)[O-].[Na+] [Sodium butyrate, sodium butyrate]
IC50 (Vero cells; 24 h, read-out: IC50 values, Vero cells 24 h): > 3000 µM
IC50 (Vero cells; 48 h, read-out: IC50 values, Vero cells 48 h): > 3000 µM
IC50 (Vero cells; 72 h, read-out: IC50 values, Vero cells 72 h): > 3000 µM
IC50 (HCT116 cells; 24 h, read-out: IC50 values, HCT116 cells 24 h): > 3000 µM
IC50 (HCT116 cells; 48 h, read-out: IC50 values, HCT116 cells 48 h): 2200 ± 200 µM
IC50 (HCT116 cells; 72 h, read-out: IC50 values, HCT116 cells 72 h): 2000 ± 50 µM
IC50 (HeLa cells [3]; 24 h, read-out: IC50 values, HeLa cells 24 h): 2630 ± 60 µM
IC50 (HeLa cells [3]; 48 h, read-out: IC50 values, HeLa cells 48 h): 2220 ± 130 µM
IC50 (HeLa cells [3]; 72 h, listed as sodium butyrate, read-out: IC50 values, HeLa cells 72 h): 1220 ± 30 µM
IC50 (HeLa cells [3]; [5]): 1200 ± 30 µM
IC50 (Jurkat cells; 24 h, read-out: IC50 values, Jurkat cells 24 h): > 3000 µM
IC50 (Jurkat cells; 48 h, read-out: IC50 values, Jurkat cells 48 h): 2360 ± 190 µM
IC50 (Jurkat cells; 72 h, read-out: IC50 values, Jurkat cells 72 h): 1500 ± 300 µM
IC50 (MCF-7 cells; 24 h, read-out: IC50 values, MCF-7 cells 24 h): > 3000 µM
IC50 (MCF-7 cells; 48 h, read-out: IC50 values, MCF-7 cells 48 h): > 3000 µM
IC50 (MCF-7 cells; 72 h, read-out: IC50 values, MCF-7 cells 72 h): > 3000 µM
Number of Early Apoptotic cells (%) (HeLa cells [1]; 4.5 mM): 3.75 ± 1.06%
Number of Late Apoptotic cells (%) (HeLa cells [1]; 4.5 mM): 1.00 ± 0.28%
Number of Early Apoptotic cells (%) (HeLa cells [1]; 9.0 mM): 7.60 ± 1.27%
Number of Late Apoptotic cells (%) (HeLa cells [1]; 9.0 mM): 2.05 ± 1.06%
Number of Early Apoptotic cells (%) (HeLa cells [1]; 9.0 mM, listed as sodium butyrate): 7.6%
IC50 [4]: 970 ± 70 µM
IC50 (HT29 cells; 24 h, read-out: IC50 values, HT29 cells 24 h): > 3000 µM
IC50 (HT29 cells; 48 h, read-out: IC50 values, HT29 cells 48 h): > 3000 µM
IC50 (HT29 cells; 72 h, read-out: IC50 values, HT29 cells 72 h): 2570 ± 30 µM
